Like-named read-outs stand apart in the source and are kept apart here.
Experiments:
[1] = test system: HIV-1 TAR RNA; experiment: Saturation transfer difference (STD) NMR binding experiment
[2] = test system: HIV-1 TAR RNA; experiment: NMR line broadening of ligand signals; type: binding
[3] = test system: Tat-TAR interaction (TAR with hybrid CycT1-Tat protein); experiment: Electrophoretic mobility shift assay (EMSA, gel shift); type: binding, HIV-1; details: for prevention of the binding between Tat and TAR (EMSA): concentrations between 0.1 and 1 μM, hybrid CycT1-Tat protein and TAR each at 0.1 μM; for binding to the TAR region: in vitro; for Gel Shift Assay: HIV-1 TAR
Source text: RNA Binding Assays In vitro (Electrophoretic Mobility Shift Assay; EMSA)
EMSA is an effective method for determining whether TAR forms a complex with Tat and human cyclin T1. n the presence of TAR, containing the 5′ bulge and central loop, and these proteins, a lower mobility complex was observed on polyacrylamide gels. The lack of higher order complex formation signifies that a compound can block this RNA-protein interaction. […] These phenothiazines are used clinically as antipsychotic, sedative and antiemetic agents.

[4] = test system: Ribosomal A-site RNA; experiment: Saturation transfer difference (STD) NMR binding experiment; details: for STD signals @ 0.4-0.6 mM drug: Ribosomal A-site RNA
[5] = test system: Ribosomal A-site RNA; experiment: NMR line broadening of ligand signals; type: binding
[6] = test system: Polio virus loop B RNA; type: binding
[7] = test system: CVB3 loop D RNA; experiment: Saturation transfer difference (STD) NMR binding experiment; design: species or system coxsackievirus B3
[8] = test system: DLS SL1 CA-loop RNA (dimer linkage site stem-loop 1); experiment: NMR line broadening of ligand signals; type: binding, HIV-1
[9] = test system: HIV-1 TAR RNA; experiment: TOCSY/NOESY NMR, structure of the acetylpromazine-TAR complex; type: binding
Procedure: Five different samples of the 31-nucleotide TAR were prepared: unlabeled, uniformly ^13C,^15N-labeled, type-specifically ^13C,^15N-labeled at G, A or C residues, respectively. All samples were prepared by in vitro transcription using T7 RNA polymerase and a synthetic DNA template and purified as described in Du, et al., Biochemistry 35, 4187 (1996). Acetylpromazine was purchased from Research Diagnostics Inc. Final sample conditions were 1-2 mM RNA in 10 mM sodium phosphate buffer (pH 6.5), 20 mM sodium chloride. Acetylpromazine was added in about two-fold excess over RNA.
The solution structure of the acetylpromazine-TAR complex was determined using a protocol very similar to that previously described by Schmitz, U., et al, (1999) Structure of the phylogenetically most conserved domain of SRP RNA, RNA 5, 1419-1429.
All NMR experiments were performed on Varian Inova 600 MHz spectrometers. Spectra were processed with NMRpipe and analyzed with SPARKY. Homonuclear 2D NOESY spectra in H2O were collected at 10° C. using the SSNOESY pulse sequence.
Due to the large number of intermolecular NOEs, 51, between acetylpromazine and TAR, binding of acetylpromazine to the 5′ bulge is very well defined.
The […] of acetylpromazine inserts between base pairs G26-C39 and A22-U40, preventing continuous stacking of the lower and upper stems as observed in structures induced by argininamide or Tat-peptide. However, another set of base-stacking interactions is created. U23 continues stacking on A22 in the fashion of an A-helix. This is evident by the NOEs from U23 H6 to A22 H2′ and H3′, and from U23 H1′ to A22 H2. Benzene ring II of acetylpromazine is stacked on U40. Stacking of U23 on A22 and benzene ring II on U40 arranges the U23 base and benzene ring II such that they look like an extra base pair continuing helical stacking on the A22-U40 base pair. This “pseudo base-pair” may contribute to the creation of a deeper minor groove (compared to the standard A-helix) to accommodate the aliphatic moiety of acetylpromazine. […]

[10] = test system: CVB3 loop D RNA; experiment: NMR line broadening of ligand signals; type: binding, coxsackievirus B3
[11] = test system: Polio virus loop B RNA; type: binding; remark: listed apart in the source
[12] = test system: RNA targets (ribosomal A-site, polio virus, DLS SL1, CVB3); type: binding; details: specific tertiary RNA motifs, loops and bulges
[13] = test system: Ribosomal A-site RNA; experiment: TOCSY/NOESY NMR chemical shift mapping; type: binding
[14] = molecular target: A-site RNA; experiment: STD NMR competition experiment with paromomycin; type: binding; details: calculated from IC50 of the STD competition with paromomycin by Cheng and Prusoff correction; read-out: KD for the interaction with A-site RNA
[15] = test system: DLS SL1 CA-loop RNA (dimer linkage site stem-loop 1); experiment: Saturation transfer difference (STD) NMR binding experiment; design: species or system HIV-1
[16] = test system: DLS SL1 CA-loop RNA (dimer linkage site stem-loop 1); experiment: TOCSY/NOESY NMR chemical shift mapping; type: binding, HIV-1
[17] = test system: Polio virus loop B RNA; type: binding; details: first part of cell TOCSY/NOESY
[18] = test system: Tat transactivation via TAR; experiment: Chloramphenicol acetyl transferase (CAT) assay in HeLa cells, HIV-1 LTR and Tat; details: concentrations between 5 and 20 μM, dose-dependent
[19] = test system: HeLa cells; details: human, 3 days
[20] = molecular target: A-site RNA; details: value stated for the competitor; read-out: KD of the high affinity drug (competitor) for A-site RNA; cited from earlier work

SMILES	STD signals @ 0.4-0.6 mM drug [1]	Line broadening [2]	prevention of the binding between Tat and TAR (EMSA) [3]	binding to the TAR region [3]	STD signals @ 0.4-0.6 mM drug [4]	Line broadening [5]	Gel Shift Assay [3]	other results
Clc1ccc2c(c1)N(CCCn1ccnc1)c1ccccc1S2 [(11)]	yes							
Clc1ccc2c(c1)N(CCCNCc1ccccc1)c1ccccc1S2 [(10)]	yes	little						
CCSc1ccc2c(c1)N(CCCN1CCN(C)CC1)c1ccccc1S2 [thiethylperazine]			did not	not found to have such binding activity				
CN1CCN(CCCN2c3ccccc3Sc3ccc(C(F)(F)F)cc32)CC1 [trifluoperazine]			did not	not found to have such binding activity				inhibitory effect on the RNA of the ribosomal A-site ([4]; method not specified): inhibitory effect
OCCNCCCN1c2ccccc2Sc2ccc(Cl)cc21 [(7)]	yes	yes						
CN(C)CCCN1c2ccccc2Sc2ccc(Cl)cc21 [chlorpromazine, 2-chloro-10-(dimethylaminopropyl)phenothiazine]			prevent completely	bind				
Clc1ccc2c(c1)N(CCCN1CCCCC1)c1ccccc1S2 [(9)]	yes	little						
CN(C)CCCN1c2ccccc2Sc2ccccc21 [(6)]		yes			no	little	positive	
CC(=O)c1ccc2c(c1)N(CCCN(C)C)c1ccccc1S2 [(1), 10-[3-(dimethylamino)-propyl)phenothiazin-2-yl methyl ketone]	yes	yes	prevent completely	bind	yes	yes	positive	Line broadening [6]: yes; STD signals @ 0.4-0.6 mM drug [7]: yes; Line broadening [8]: yes; binding site on TAR in solution (NMR-derived structural model) ([9]; 5′ bulge): binds to the 5′ bulge of TAR; TOCSY data ([9]; first part of cell TOCSY/NOESY): yes/yes; NOESY data ([9]; second part of cell TOCSY/NOESY): yes/yes; Line broadening [10]: yes; STD signals @ 0.4-0.6 mM drug [11]: yes; inhibition of the interaction of TAR and Tat ([3]; compound at 100 nM, TAR and Tat both at 100 nM): completely inhibited; binding to RNA motifs by chemical shift mapping (TOCSY) [12]: binds to specific tertiary RNA motifs such as loops and bulges; NOESY data [13]: yes/yes; TOCSY data [13]: yes/yes; Kd [14]: ~10 µM; STD signals @ 0.4-0.6 mM drug [15]: yes; TOCSY data [16]: yes/no data; TOCSY data [17]: yes/no data
CN1CCN(CCCN2c3ccccc3Sc3ccc(Cl)cc32)CC1 [prochlorperazine]			prevent completely	bind				inhibition of Tat transactivation [18]: up to 6 fold; concentration at which significant cellular toxicity resulted [19]: > 20 µM
NC[C@@H]1O[C@H](O[C@H]2[C@@H](O)[C@H](O[C@@H]3[C@@H](O)[C@H](N)C[C@H](N)[C@H]3O[C@H]3O[C@H](CO)[C@@H](O)[C@H](O)[C@H]3N)O[C@@H]2CO)[C@H](N)[C@@H](O)[C@@H]1O [paromomycin]								Kd [20]: 0.2 µM
CCCCNCCCN1c2ccccc2Sc2ccc(Cl)cc21 [(8)]	yes	yes						
CN(C)CCCN1c2ccccc2Sc2ccccc21 [(3)]					no	yes	negative	
CN(C)CCCN1c2ccccc2Sc2ccccc21 [(4)]					yes	yes	positive	
CN(C)CCCN1c2ccccc2Sc2ccccc21 [(5)]					yes	yes	negative	
CN(C)CCCN1c2ccccc2Sc2ccccc21 [(2)]					yes	yes	positive	

From US20030229082A1, “Inhibition of RNA function” (The Regents of the University of California, priority 2002, published 2003)
